Measured values: ChEMBL document CHEMBL1687705, “Design, Synthesis, and in Vitro Evaluation of Novel Aminomethyl-pyridines as DPP-4 Inhibitors” (ACS Med Chem Lett, 2010)

How the values were obtained:
Dipeptidyl peptidase 4 = Dipeptidyl peptidase 4 (Homo sapiens, UniProt P27487); test: Inhibition of human recombinant DPP4 assessed as Gly-Pro-pNA chromogenic substrate cleavage for 16 mins preincubated with compound for 10 mins before addition of chromogenic substrate
Dipeptidyl peptidase 8 = Dipeptidyl peptidase 8 (Homo sapiens, UniProt Q6V1X1); test: Inhibition of human recombinant DPP8 assessed as Gly-Pro-pNA chromogenic substrate cleavage for 16 mins preincubated with compound for 10 mins before addition of chromogenic substrate
HeLa [1] = test: Cytotoxicity against human HeLa cells; format: functional; conditions: read-out: LC50 (the source's name)
HeLa [2] = test: Cytotoxicity against human HeLa cells at 10 uM; format: functional, cell-based
Homo sapiens = species: Homo sapiens; test: Selectivity ratio of IC50 for human recombinant DPP8 to IC50 for human recombinant DPP4

Sequence of Dipeptidyl peptidase 8 (Q6V1X1 whole entry): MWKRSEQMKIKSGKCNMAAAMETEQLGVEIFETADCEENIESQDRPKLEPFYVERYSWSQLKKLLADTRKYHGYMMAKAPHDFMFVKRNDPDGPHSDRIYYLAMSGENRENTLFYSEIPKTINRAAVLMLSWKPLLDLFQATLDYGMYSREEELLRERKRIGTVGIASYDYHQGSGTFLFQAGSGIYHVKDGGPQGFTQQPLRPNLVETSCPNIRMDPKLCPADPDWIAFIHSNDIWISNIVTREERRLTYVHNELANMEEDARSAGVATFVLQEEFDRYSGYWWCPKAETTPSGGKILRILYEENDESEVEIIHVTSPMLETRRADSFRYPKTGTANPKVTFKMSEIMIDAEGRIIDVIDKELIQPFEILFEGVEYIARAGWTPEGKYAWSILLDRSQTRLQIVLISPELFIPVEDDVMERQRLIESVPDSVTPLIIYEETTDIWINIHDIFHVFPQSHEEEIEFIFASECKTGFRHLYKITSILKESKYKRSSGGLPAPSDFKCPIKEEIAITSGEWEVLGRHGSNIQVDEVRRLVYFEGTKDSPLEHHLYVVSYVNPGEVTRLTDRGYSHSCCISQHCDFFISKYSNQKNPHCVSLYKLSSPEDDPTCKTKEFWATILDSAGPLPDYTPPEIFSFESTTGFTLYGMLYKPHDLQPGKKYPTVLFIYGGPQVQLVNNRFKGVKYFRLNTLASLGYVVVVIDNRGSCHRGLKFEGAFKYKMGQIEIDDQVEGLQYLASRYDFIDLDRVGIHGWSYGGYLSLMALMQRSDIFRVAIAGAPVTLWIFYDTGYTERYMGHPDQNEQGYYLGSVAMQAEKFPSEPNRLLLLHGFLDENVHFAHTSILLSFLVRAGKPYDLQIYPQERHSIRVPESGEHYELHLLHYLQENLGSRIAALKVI
Sequence of Dipeptidyl peptidase 4 (P27487 whole entry): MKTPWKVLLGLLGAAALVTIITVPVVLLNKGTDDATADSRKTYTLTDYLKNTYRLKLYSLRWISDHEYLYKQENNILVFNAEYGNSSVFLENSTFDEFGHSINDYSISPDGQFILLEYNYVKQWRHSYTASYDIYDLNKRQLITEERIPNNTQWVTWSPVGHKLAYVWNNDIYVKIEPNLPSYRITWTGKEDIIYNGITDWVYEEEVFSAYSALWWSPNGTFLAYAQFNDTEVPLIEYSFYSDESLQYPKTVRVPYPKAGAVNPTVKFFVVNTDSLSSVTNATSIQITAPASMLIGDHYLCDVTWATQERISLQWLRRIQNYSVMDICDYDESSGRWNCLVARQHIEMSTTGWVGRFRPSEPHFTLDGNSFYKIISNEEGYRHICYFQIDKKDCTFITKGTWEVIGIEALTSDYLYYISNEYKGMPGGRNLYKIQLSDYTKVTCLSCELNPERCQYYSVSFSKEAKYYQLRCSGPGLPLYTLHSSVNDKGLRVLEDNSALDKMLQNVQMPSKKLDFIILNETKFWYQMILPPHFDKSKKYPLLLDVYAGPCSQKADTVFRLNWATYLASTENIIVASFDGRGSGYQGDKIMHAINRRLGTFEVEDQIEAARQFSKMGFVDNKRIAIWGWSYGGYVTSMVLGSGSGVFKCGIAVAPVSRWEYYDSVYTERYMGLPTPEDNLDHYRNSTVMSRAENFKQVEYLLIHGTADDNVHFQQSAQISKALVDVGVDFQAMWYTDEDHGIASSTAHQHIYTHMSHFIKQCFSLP

| IC50 (Dipeptidyl peptidase 4) | Compound | CC50 (HeLa [1]) | Activity (HeLa [2]) | also measured |
| --- | --- | --- | --- | --- |
| < 50 µM | Cc1nc(C(=O)N2CCCC2)cc(-c2ccccc2F)c1CN | – | – | – |
| – | Cc1nc(C(=O)NC2CC2)cc(-c2ccc(F)cc2)c1CN | > 10 µM | – | Ki (Dipeptidyl peptidase 8): 106 µM |
| < 50 µM | Cc1nc(C(=O)N2CCOCC2)cc(-c2ccc(Cl)cc2Cl)c1CN | – | Not toxic | – |
| > 50 µM | Cc1nc(CN)cc(-c2ccccc2F)c1C(N)=O | – | – | – |
| < 50 µM | Cc1nc(C(=O)O)cc(-c2ccc(F)cc2F)c1CN | – | – | – |
| < 50 µM | Cc1nc(C(=O)N2CCOCC2)cc(-c2ccc(F)cc2)c1CN | – | – | – |
| – | Cc1nc(C(N)=O)cc(-c2ccc(Cl)cc2Cl)c1CN | > 10 µM | Not toxic | – |
| – | Cc1nc(C(=O)NCC#N)cc(-c2ccc(Cl)cc2Cl)c1CN | > 10 µM | Not toxic | – |
| – | Cc1nc(C(=O)N2CCCC2)cc(-c2ccc(F)cc2)c1CN | > 10 µM | – | Ki (Dipeptidyl peptidase 8): 137 µM |
| > 50 µM | Cc1nc(CN)cc(-c2ccc(Cl)cc2)c1C(N)=O | – | – | – |
| < 50 µM | Cc1nc(C(=O)NC2CC2)cc(-c2ccccc2F)c1CN | – | – | – |
| – | Cc1nc(C(=O)N2CCCC2)cc(-c2ccc(Cl)cc2Cl)c1CN | > 10 µM | Not toxic | – |
| < 50 µM | Cc1nc(C(N)=O)cc(-c2ccccc2F)c1CN | – | – | – |
| < 50 µM | Cc1nc(C(=O)N2CCCC2)cc(-c2ccc(F)cc2F)c1CN | – | – | – |
| < 50 µM | Cc1nc(C(=O)N2CCOCC2)cc(-c2ccc(F)cc2F)c1CN | – | – | – |
| – | Cc1nc(C(=O)NC2CC2)cc(-c2ccc(F)cc2F)c1CN | > 10 µM | – | Ki (Dipeptidyl peptidase 8): 182 µM |
| < 50 µM | Cc1nc(C(=O)NCC(N)=O)cc(-c2ccc(Cl)cc2Cl)c1CN | – | Not toxic | Ratio IC50 (Homo sapiens): 6600 |
| – | Cc1cc(NC(=O)c2cc(-c3ccc(F)cc3F)c(CN)c(C)n2)no1 | > 10 µM | – | Ki (Dipeptidyl peptidase 8): 179 µM |
| < 50 µM | Cc1nc(C(=O)NC2CC2)cc(-c2ccc(Cl)cc2Cl)c1CN | – | Not toxic | – |
| – | CNC(=O)c1cc(-c2ccc(Cl)cc2Cl)c(CN)c(C)n1 | > 10 µM | Not toxic | – |
| < 50 µM | CNC(=O)c1cc(-c2ccc(Cl)cc2)c(CN)c(C)n1 | – | – | – |
| < 50 µM | Cc1nc(C(=O)O)cc(-c2ccc(F)cc2)c1CN | – | – | – |
| < 50 µM | COC(=O)CNC(=O)c1cc(-c2ccc(F)cc2F)c(CN)c(C)n1 | – | – | – |
